Molecular target: human DGAT2 (hDGAT2) (Homo sapiens (Human), UniProt Q96PD7)
Assay: DGAT2 enzymatic activity assay (triolein formation, LC/MS/MS)
Format: biochemical
Conditions: Sf-9 membrane prep expressing hDGAT2; 25 μM diolein, 10 μM oleoyl-CoA; triolein by LC/MS/MS
Experimental: Sf-9 insect cells were maintained in Grace's insect cell culture medium with 10% heated-inactivated fetal bovine serum, 1% Pluronic F-68 and 0.14 μg/ml Kanamycine sulfate in Erlenmeyer flasks at 28° C. in a shaker incubator. After infection with untagged baculovirus expressing human DGAT2 (hDGAT2) at multiplicity of infection (MOI) 0.1 for 48 hours, cells were harvested. Cell pellets were suspended in buffer containing 10 mM Tris-HCl (pH 7.5), 1 mM EDTA (pH 8.0), 250 mM sucrose and Complete Protease Inhibitor Cocktail (Roche Diagnostics Corp., Indianapolis, Ill.), and sonicated on ice. Membrane fractions were isolated by ultracentrifugation (100,000×g pellet), resuspended in the same buffer, and frozen (−80° C.) for later use. The protein concentration was determined with the BCA Protein Assay kit (Pierce Biotechnology Inc., Rockford, Ill.). Expression of protein levels was analyzed by immunoblotting with goat polyclonal DGAT2 antibody C-15 and donkey anti-goat IgG HRP (Santa Cruz Biotechnology, Inc., Santa Cruz, Calif.) followed by detection with ECL reagent (GE Healthcare, Piscataway, N.J.).
LC/MS/MS analyses were performed using Thermal Fisher's LX4-TSQ Vantage system. This system consists of an Agilent binary high-performance liquid chromatography (HPLC) pumps and a TSQ Vantage triple quadrupole MS/MS instrument. For each sample, 2 μL samples from the top organic layer of in-plate liquid-liquid extraction were injected onto a Thermo Betabasic C4 column (2.1 mm×20 mm, 5 μm particle size). The samples were then eluted using the following conditions; mobile phase: methanol/water with 0.1% ammonium format=92/8 (v/v), flow rate: 1 mL/min, temperature: 25 C. Data was acquired in positive mode using a heated electrospray ionization (HESI) interface. The operational parameters for the TSQ Vantage MS/MS instrument were a spray voltage of 3000 V, capillary temperature of 280° C., vaporizer temperature 400° C., shealth gas 60 arbitrary unit, Aux gas 40 arbitrary units, S-lens 113 and collision gas 0.16 Pascals. […] (SRM) chromatograms of triolein (Q1:902.9>Q3:602.3) and internal standard (Q1:902.9>Q3:602.3) were collected for 40 sec. The peak area was integrated by Xcalibur Quan software. The ratio between the triolein generated in the reaction and spiked in internal standard was used to generate percentage inhibition and IC50 values. Compound percentage inhibition was calculated by the following formula: Inhibition %/=1−[(compound response−low control)/(high control−low control)]×100%. Potent compounds were titrated and IC50 were calculated by 4 parameter sigmoidal curve fitting formula.
DGAT2 activity was determined by measuring the amount of enzymatic product triolein (1,2,3-Tri(cis-9-octadecenoyl)glycerol) using the membrane prep mentioned above. The assay was carried out in deep well 384 plates in a final volume of 40 μL at rt. The assay mixture contained the following: assay buffer (100 mM Tris.Cl, pH 7.0, 20 mM MgCl2, 5% ethanol), 25 μM of diolein, 10 μM of oleoyl-CoA and 10 ng/μL of DGAT2 membrane.

human DGAT2 (hDGAT2), sequence (Q96PD7 whole entry): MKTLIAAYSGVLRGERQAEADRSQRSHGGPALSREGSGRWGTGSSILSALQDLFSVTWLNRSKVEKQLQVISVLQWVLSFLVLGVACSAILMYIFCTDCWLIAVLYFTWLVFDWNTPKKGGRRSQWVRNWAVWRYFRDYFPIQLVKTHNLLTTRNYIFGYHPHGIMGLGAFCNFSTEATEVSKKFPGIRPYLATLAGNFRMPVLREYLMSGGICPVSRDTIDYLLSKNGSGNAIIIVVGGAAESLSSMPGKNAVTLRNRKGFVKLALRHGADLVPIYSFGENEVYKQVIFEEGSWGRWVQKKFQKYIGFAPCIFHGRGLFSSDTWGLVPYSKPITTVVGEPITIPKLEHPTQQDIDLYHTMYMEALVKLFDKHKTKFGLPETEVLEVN

Row | Compound | IC50 [nM]
1 | CC1(NC(=O)c2ccc3c(-c4cccc(C5CC5)c4)cn(-c4ncc(F)cn4)c3c2)CCS(=O)(=O)C1 (single isomer, unassigned; enantiomer a) [Example 16-A, 3-(3-cyclopropylphenyl)-1-(5-fluoropyrimidin-2-yl)-N-(3-methyl-1,1-dioxidotetrahydrothiophen-3-yl)-1H-indole-6-carboxamide (enantiomer A)] | 2.7
2 | O=C(NC1CCS(=O)(=O)C1)c1ccc2c(-c3cccc(OC(F)F)c3)cn(-c3ccc(F)cc3)c2c1 (racemic) [Example 39, 3-[3-(difluoromethoxy)phenyl]-N-(1,1-dioxidotetrahydrothiophen-3-yl)-1-(4-fluorophenyl)-1H-indole-6-carboxamide (racemic)] | 1.1
3 | N#Cc1cccc(-c2cn(-c3ccc(F)cc3)c3cc(C(=O)NC4CCS(=O)(=O)C4)ccc23)c1 (racemic) [Example 45, 3-(3-cyanophenyl)-N-(1,1-dioxidotetrahydrothiophen-3-yl)-1-(4-fluorophenyl)-1H-indole-6-carboxamide (racemic)] | 13
4 | O=C(NC1CCS(=O)(=O)C1)c1ccc2c(-c3ccccc3F)cn(-c3ccc(F)cc3)c2c1 (racemic) [Example 40, N-(1,1-dioxidotetrahydrothiophen-3-yl)-3-(2-fluorophenyl)-1-(4-fluorophenyl)-1H-indole-6-carboxamide (racemic)] | 26
5 | O=C(NC1CCS(=O)(=O)C1)c1ccc2c(-c3cccc(C4CC4)c3)cn(-c3ccc(F)cn3)c2c1 (single isomer, unassigned; enantiomer a) [Example 11-A, 3-(3-cyclopropylphenyl)-N-(1,1-dioxidotetrahydrothiophen-3-yl)-1-(5-fluoropyridin-2-yl)-1H-indole-6-carboxamide (enantiomer A)] | 2.1
6 | COCC(C)NC(=O)c1ccc2c(-c3ccccc3Cl)cn(-c3ccc(F)cc3)c2c1 (racemic) [Example 3, 3-(2-chlorophenyl)-1-(4-fluorophenyl)-N-(1-methoxypropan-2-yl)-1H-indole-6-carboxamide (racemic)] | 344
7 | Cc1cc(C)n(-c2cccc(-c3cn(-c4ccc(F)cc4)c4cc(C(=O)NC5CCS(=O)(=O)C5)ccc34)c2)n1 (racemic) [Example 61, 3-[3-(3,5-dimethyl-1H-pyrazol-1-yl)phenyl]-N-(1,1-dioxidotetrahydrothiophen-3-yl)-1-(4-fluorophenyl)-1H-indole-6-carboxamide (racemic)] | 929
8 | Cc1c(-c2ccccc2Cl)c2ccc(C(=O)NC3(C)CCS(=O)(=O)C3)cc2n1-c1ccc(F)cc1 (single isomer, unassigned; enantiomer a) [Example 8-A, 3-(2-chlorophenyl)-1-(4-fluorophenyl)-2-methyl-N-(3-methyl-1,1-dioxidotetrahydrothiophen-3-yl)-1H-indole-6-carboxamide (Enantiomer A)] | 934
9 | Cn1cc(-c2cn(-c3ccc(F)cc3)c3cc(C(=O)NC4CCS(=O)(=O)C4)ccc23)cn1 (racemic) [Example 54, N-(1,1-dioxidotetrahydrothiophen-3-yl)-1-(4-fluorophenyl)-3-(1-methyl-1H-pyrazol-4-yl)-1H-indole-6-carboxamide (racemic)] | 345
10 | O=C(NC1CCS(=O)(=O)C1)c1ccc2c(-c3cccc(OC(F)F)c3)cn(-c3ccc(F)cn3)c2c1 (single isomer, unassigned; enantiomer a) [Example 13-A, 3-(3-(difluoromethoxy)phenyl)-N-(1,1-dioxidotetrahydrothiophen-3-yl)-1-(5-fluoropyridin-2-yl)-1H-indole-6-carboxamide (enantiomer A)] | 1.8
11 | O=C(NC1CCS(=O)(=O)C1)c1ccc2c(-c3ccccc3Cl)cn(-c3ccc(F)cc3)c2c1 (racemic) [Example 2, 3-(2-Chlorophenyl)-N-(1,1-dioxidotetrahydrothiophen-3-yl)-1-(4-fluorophenyl)-1H-indole-6-carboxamide] | 66
12 | O=C(NC1CCS(=O)(=O)C1)c1ccc2c(-c3cccc(O)c3)cn(-c3ccc(F)cc3)c2c1 (racemic) [Example 59, N-(1,1-dioxidotetrahydrothiophen-3-yl)-1-(4-fluorophenyl)-3-(3-hydroxyphenyl)-1H-indole-6-carboxamide (racemic)] | 492
13 | O=C(NC1CCS(=O)(=O)C1)c1ccc2c(-c3ccccc3Cl)cn(-c3ccc(F)cc3)c2c1 (single isomer, unassigned) [Example 2-A, 3-(2-chlorophenyl)-N-(1,1-dioxidotetrahydrothiophen-3-yl)-1-(4-fluorophenyl)-1H-indole-6-carboxamide] | 171
14 | Cc1cc(C)nc(-c2cn(-c3ccc(F)cc3)c3cc(C(=O)NC4CCS(=O)(=O)C4)ccc23)c1 (racemic) [Example 20, 3-(4,6-dimethylpyridin-2-yl)-N-(1,1-dioxidotetrahydrothiophen-3-yl)-1-(4-fluorophenyl)-1H-indole-6-carboxamide (racemic)] | 802
15 | CC(=O)Nc1cccc(-c2cn(-c3ccc(F)cc3)c3cc(C(=O)NC4CCS(=O)(=O)C4)ccc23)c1 (racemic) [Example 37, 3-[3-(acetylamino)phenyl]-N-(1,1-dioxidotetrahydrothiophen-3-yl)-1-(4-fluorophenyl)-1H-indole-6-carboxamide (racemic)] | 163
16 | O=C(NC1CCS(=O)(=O)C1)c1ccc2c(-c3cccnc3)cn(-c3ccc(F)cc3)c2c1 (racemic) [Example 52, N-(1,1-dioxidotetrahydrothiophen-3-yl)-1-(4-fluorophenyl)-3-pyridin-3-yl-1H-indole-6-carboxamide (racemic)] | 129
17 | O=C(NC1CCS(=O)(=O)C1)c1ccc2c(-c3ccccc3)cn(-c3ccc(F)cc3)c2c1 (racemic) [Example 43, N-(1,1-dioxidotetrahydrothiophen-3-yl)-1-(4-fluorophenyl)-3-phenyl-1H-indole-6-carboxamide (racemic)] | 55
18 | O=C(NC1CCS(=O)(=O)C1)c1ccc2c(-c3cc(Cl)cc(Cl)c3)cn(-c3ccc(F)cc3)c2c1 (racemic) [Example 41, 3-(3,5-dichlorophenyl)-N-(1,1-dioxidotetrahydrothiophen-3-yl)-1-(4-fluorophenyl)-1H-indole-6-carboxamide (racemic)] | 88
19 | CC1(NC(=O)c2ccc3c(-c4ccccc4Cl)cn(-c4ccc(F)cn4)c3c2)CCS(=O)(=O)C1 (single isomer, unassigned; enantiomer b) [Example 14-B, 3-(2-chlorophenyl)-1-(5-fluoropyridin-2-yl)-N-(3-methyl-1,1-dioxidotetrahydrothiophen-3-yl)-1H-indole-6-carboxamide (Enantiomer B, Slow)] | 9.8
20 | CC1(NC(=O)c2ccc3c(-c4cccc(OC(F)F)c4)cn(-c4ncc(F)cn4)c3c2)CCS(=O)(=O)C1 (single isomer, unassigned; enantiomer a) [Example 18-A, 3-(3-(difluoromethoxy)phenyl)-1-(5-fluoropyrimidin-2-yl)-N-(3-methyl-1,1-dioxidotetrahydrothiophen-3-yl)-1H-indole-6-carboxamide (enantiomer A)] | 1.7
21 | O=C(NC1CCS(=O)(=O)C1)c1ccc2c(-c3cccc(-n4cccn4)c3)cn(-c3ccc(F)cc3)c2c1 (racemic) [Example 38, N-(1,1-dioxidotetrahydrothiophen-3-yl)-1-(4-fluorophenyl)-3-[3-(1H-pyrazol-1-yl)phenyl]-1H-indole-6-carboxamide (racemic)] | 15
22 | O=C(NC1CCS(=O)(=O)C1)c1ccc2c(-c3cccc(F)c3)cn(-c3ccc(F)cc3)c2c1 (racemic) [Example 35, N-(1,1-dioxidotetrahydrothiophen-3-yl)-3-(3-fluorophenyl)-1-(4-fluorophenyl)-1H-indole-6-carboxamide (racemic)] | 101
23 | CC1(NC(=O)c2ccc3c(-c4cccc(OC(F)F)c4)cn(-c4ccc(F)cn4)c3c2)CCS(=O)(=O)C1 (single isomer, unassigned; enantiomer b) [Example 10-B, 3-(3-(difluoromethoxy)phenyl)-1-(5-fluoropyridin-2-yl)-N-(3-methyl-1,1-dioxidotetrahydrothiophen-3-yl)-1H-indole-6-carboxamide (enantiomer B)] | 1

From patent US10947222B2, “Indole derivatives useful as inhibitors of diacylglyceride O-acyltransferase 2” (Merck Sharp & Dohme Corp., priority 2016, dated 2021)
